The values that follow are results of earlier work, collected in patent publication US5330766A, “Sustained release pharmaceutical composition” (priority 1989, dated 1994).

Where a name gives a salt, the structure may show the parent alone. Read-outs that look alike come from different tables or passages of the source.

Assay in data set [1]: not given
The source holds these as a separate data set.

Consider `COc1ccc2c3c1O[C@H]1C(=O)CC[C@H]4[C@@H](C2)N(C)CC[C@]314.O=C(O)C(O)C(O)C(=O)O` [Hydrocodone bitartrate], for which, where the note is “first or only value given”, the pKA was 8.3.
Regarding `CC(C)(S)[C@@H](N)C(=O)O` [Penicillamine], under “first or only value given”, the pKA is reported as 1.8.
For the compound `C[n+]1ccccc1/C=N/O` [Pralidoxime chloride], the pKA (first or only value given) is 8.
Turning to `CCOC(=O)C1(c2ccccc2)CCN(C)CC1` [Pethidine hydrochloride], in data set [1], the “SOLUBILITY (AQUEOUS), in words” value was “very soluble”.
Take `CC(C)(C)NC[C@H](O)COc1nsnc1N1CCOCC1` [Timolol maleate]: in data set [1], the “SOLUBILITY (AQUEOUS), in words” value is given as “freely soluble”. In addition, under “first or only value given”, the pKA is recorded as 9.
Take `CCNC(C)Cc1cccc(C(F)(F)F)c1` (stereo not shown) [Fenfluramine hydrochloride]: the pKA (first or only value given) is given as 9.1.
Regarding `CN(C)CCN(Cc1ccccc1)c1ccccn1` [Tripelennamine citrate], the pKA runs as follows: (first or only value given) 3.9; (second value) 9.0.
`CN1CCCC1c1cccnc1` (stereo not shown) [Nicotine]: the “SOLUBILITY (AQUEOUS), in words” value in data set [1] is listed as “soluble”.
`CCC(C)C1(CC)C(=O)NC(=O)NC1=O` (stereo not shown) [Butabarbital sodium]: in data set [1], the “SOLUBILITY (AQUEOUS), in words” value is listed as “freely soluble”. The pKA (first or only value given) is listed as 7.9.
Regarding `COc1cc2c(c(OC)c1OC)-c1ccc(OC)c(=O)cc1[C@@H](NC(C)=O)CC2` [Colchicine], the pKA is, setting by setting: (first or only value given) 1.7; (second value) 12.4.
With `CO[C@@H]1[C@@H](OC(N)=O)[C@@H](O)[C@H](Oc2ccc3c(O)c(NC(=O)c4ccc(O)c(CC=C(C)C)c4)c(=O)oc3c2C)OC1(C)C` [Novobiocin Sodium], for the setting “second value”, the pKA was 9.1.
With `CN1CCC(=C2c3ccccc3CCc3cccnc32)CC1` [Azatadine maleate], in data set [1], the “SOLUBILITY (AQUEOUS), in words” value is listed as “very soluble”. In addition, the pKA (first or only value given) is 9.3.
Take `C[C@H](CN1CCOCC1)C(C(=O)N1CCCC1)(c1ccccc1)c1ccccc1` [Dextromoramide tartrate]: the pKA (first or only value given) was 7.1.
In the case of `CCN(CC)CC#CCOC(=O)C(O)(c1ccccc1)C1CCCCC1` (stereo not shown) [Oxybutynin hydrochloride], under “first or only value given”, the pKA is 6.96.
For `NNC(=O)c1ccncc1` [Isoniazid], the pKA is given as 10.8. Also, the pKA (second value) is listed as 3.5.
As for `OCCOCCN1CCN(C(c2ccccc2)c2ccc(Cl)cc2)CC1` (stereo not shown) [Hydroxyzine hydrochloride], the pKA reads like this: (first or only value given) 2.6; (second value) 7.0.
Consider `CC(COc1ccccc1)N(CCCl)Cc1ccccc1` (stereo not shown) [Phenoxybenzamine hydrochloride], for which, where the note is “first or only value given”, the pKA is recorded as 4.4.
On to `C[C@@H](Cc1ccccc1)N(C)Cc1ccccc1` [Benzphetamine hydrochloride], for which the pKA (first or only value given) is reported as 6.6.
As to `CC(N)C(O)c1ccccc1` (stereo not shown) [Phenylpropanolamine hydrochloride], the pKA (first or only value given) is reported as 9.
For `C[C@H]1[C@H](c2ccccc2)OCCN1C` [Phendimetrazine tartrate], in data set [1], the “SOLUBILITY (AQUEOUS), in words” value is on record as “freely soluble”. Besides, the pKA (first or only value given) is recorded as 7.6.
As to `O=C1NC(=O)C(c2ccccc2)(c2ccccc2)N1` [Phenytoin sodium], in data set [1], the “SOLUBILITY (AQUEOUS), in words” value is “soluble”.
In the case of `CCC1(CC)C(=O)NCC(C)C1=O` (stereo not shown) [Methyprylon], the pKA (first or only value given) is reported as 12.
As to `COc1ccc(Cc2nccc3cc(OC)c(OC)cc23)cc1OC` [Papaverine hydrochloride], the pKA (first or only value given) is listed as 6.4.
Take `CN(C)C1C(=O)C(C(N)=O)=C(O)C2(O)C(=O)C3=C(O)c4c(O)cccc4C(C)(O)C3C(O)C12` (stereo not shown) [Oxytetracycline HCl]: the pKA is given as 9.1. The pKA (first or only value given) was 3.3. Moreover, for the setting “second value”, the pKA is reported as 7.3.
Consider `COc1cc(C(=O)NCc2ccc(OCCN(C)C)cc2)cc(OC)c1OC` [Trimethobenzamide hydrochloride], for which, where the note is “first or only value given”, the pKA is 8.3.
On to `CN(C)CCOC(c1ccc(Cl)cc1)c1ccccn1` (stereo not shown) [Carbinoxamine maleate], for which, for the setting “first or only value given”, the pKA is recorded as 8.1.
As for `CCC1(C)CC(=O)NC1=O` (stereo not shown) [Ethosuximide], the pKA (first or only value given) is recorded as 9.0.
Consider `O=C(O)c1ccccc1O` [Choline salicylate], for which the “SOLUBILITY (AQUEOUS), in words” value in data set [1] is recorded as “very soluble”.
In the case of `CC(C)[N+](C)(CCOC(=O)C1c2ccccc2Oc2ccccc21)C(C)C` [Propantheline bromide], the “SOLUBILITY (AQUEOUS), in words” value in data set [1] is “very soluble”. Moreover, for the setting “first or only value given”, the pKA was 9.0.
Take `NCCCCCC(=O)O` [Aminocaproic acid]: the pKA is 4.43 (first or only value given) and 10.73 (second value).
For the compound `CC(C)(S)[C@@H](N)C(=O)O` [Penicillamine HCl], the pKA is listed as 8.0 (first or only value given, HCl) and 10.8 (second value).
Turning to `CCCCCCCCCCCCCCCC(=O)OC1C(SC)OC(C(NC(=O)C2CC(CCC)CN2C)C(C)Cl)C(O)C1O` (stereo not shown) [Clindamycin Palmitate HCl], the “SOLUBILITY (AQUEOUS), in words” value in data set [1] is “freely soluble”.
As for `Cc1onc(-c2ccccc2Cl)c1C(=O)N[C@@H]1C(=O)N2[C@@H]1SC(C)(C)[C@@H]2C(=O)O` [Cloxacillin sodium], the pKA (first or only value given) is 2.7.
Take `Nc1nc2c(c(=O)[nH]1)N(C=O)C(CNc1ccc(C(=O)N[C@@H](CCC(=O)O)C(=O)O)cc1)CN2` (stereo partly shown) [Leucovorin calcium]: the pKA is on record as 10.4. In addition, the “SOLUBILITY (AQUEOUS), in words” value in data set [1] is given as “very soluble”. For the same compound, the pKA (first or only value given) was 3.1. Also, the pKA (second value) is on record as 4.8.
On to `CC1NCCOC1c1ccccc1` (stereo not shown) [Phenmetrazine hydrochloride], for which, for the setting “first or only value given”, the pKA is listed as 8.4.
Turning to `CC(C)N(CCC(C(N)=O)(c1ccccc1)c1ccccn1)C(C)C` (stereo not shown) [Disopyramide phosphate], the pKA (first or only value given) is recorded as 8.4.
As for `CCCC(CCC)C(=O)O[C@H]1C[C@H]2CC[C@@H](C1)[N+]2(C)C` [Anisotropine methylbromide], in data set [1], the “SOLUBILITY (AQUEOUS), in words” value is recorded as “soluble”.
As for `C[N+]12CCC(CC1)C(OC(=O)C(O)(c1ccccc1)c1ccccc1)C2` (stereo not shown) [Clidinium bromide], the “SOLUBILITY (AQUEOUS), in words” value in data set [1] was “soluble”.
In the case of `C=CCC1(C(C)CCC)C(=O)NC(=O)NC1=O` (stereo not shown) [Secobarbital sodium], for the setting “first or only value given”, the pKA is 7.5.
With `CN1CCC(CN2c3ccccc3Sc3ccccc32)C1` (stereo not shown) [Methdilazine HCl], for the setting “first or only value given”, the pKA was 7.5.
As for `COC(=O)C(c1ccccc1)C1CCCCN1` (stereo not shown) [Methylphenidate hydrochloride], in data set [1], the “SOLUBILITY (AQUEOUS), in words” value was “freely soluble”. In addition, the pKA (first or only value given) is 8.8.
